Assay [1] is filed under the species Homo sapiens. Description: Inhibition of alpha-glucosidase.
The test system of assay [2] is Rattus norvegicus. The assay is described as follows: Increase in blood glucose levels in Sprague-Dawley Albino rat at 100 mg/kg, po after 5 hrs. Type of assay: functional.
Assay [3] relates to Rattus norvegicus. The assay is described as follows: Increase in blood glucose levels in Sprague-Dawley Albino rat at 100 mg/kg, po after 24 hrs. Type of assay: functional.
The test system of assay [4] is Hamster. The assay is described as follows: Decrease in plasma triglyceride levels in dyslipidemic hamster model at 50 mg/kg after 7 days. Type of assay: functional, Cricetinae. Set-up: scale not given: the % may be the effect or the level left.
In assay [5] the test system is Hamster. Description: Decrease in plasma triglyceride levels in dyslipidemic hamster model at 30 mg/kg after 7 days. Set-up: scale not given: the % may be the effect or the level left. Type of assay: functional, Cricetinae.
Assay [6] concerns Hamster. The assay is described as follows: Decrease in plasma cholesterol levels in dyslipidemic hamster model at 50 mg/kg after 7 days. Type of assay: functional, Cricetinae. Set-up: scale not given: the % may be the effect or the level left.
For assay [7], the system named is Hamster. The assay is described as follows: Decrease in plasma cholesterol levels in dyslipidemic hamster model at 30 mg/kg after 7 days. Type of assay: functional, Cricetinae. Further details: scale not given: the % may be the effect or the level left.
In assay [8] the test system is Hamster. The assay is described as follows: Increase in plasma HDL-C levels in dyslipidemic hamster model at 50 mg/kg after 7 days. Type of assay: functional, Cricetinae.
Assay [9] deals with Hamster. The assay is described as follows: Increase in plasma HDL-C levels in dyslipidemic hamster model at 30 mg/kg after 7 days. Type of assay: functional, organism-based. Further details: dose 30 mg/kg. The conditions noted are these: Cricetinae.
The subject of assay [10] is Hamster. Description: Decrease in plasma glycerol levels in dyslipidemic hamster model at 50 mg/kg after 7 days. Type of assay: functional, Cricetinae. Further details: scale not given: the % may be the effect or the level left.
Assay [11] deals with Hamster. The assay is described as follows: Decrease in plasma glycerol levels in dyslipidemic hamster model at 30 mg/kg after 7 days. Set-up: scale not given: the % may be the effect or the level left. Type of assay: functional, Cricetinae.
For assay [12], the system named is Hamster. Description: Decrease in plasma FFA levels in dyslipidemic hamster model at 50 mg/kg after 7 days. Type of assay: functional, Cricetinae. Set-up: scale not given: the % may be the effect or the level left.
For assay [13], the system named is Hamster. The assay is described as follows: Decrease in plasma FFA levels in dyslipidemic hamster model at 30 mg/kg after 7 days. Type of assay: functional, Cricetinae. Set-up: scale not given: the % may be the effect or the level left.
Assay [14] deals with Hamster. The assay is described as follows: Increase in ratio of plasma HDL to plasma cholesterol levels at 50 mg/kg after 7 days. Type of assay: functional, Cricetinae.
Assay [15] concerns Hamster. Description: Increase in ratio of plasma HDL to plasma cholesterol levels at 30 mg/kg after 7 days. Type of assay: functional, Cricetinae.
For assay [16], the species on record is Homo sapiens. The assay is described as follows: Inhibition of PTPase.
For assay [17], the system named is Hamster. The assay is described as follows: Decrease in plasma triglyceride levels in dyslipidemic hamster model at 108 mg/kg after 7 days. Type of assay: functional, Cricetinae. Further details: scale not given: the % may be the effect or the level left.
Assay [18] concerns Hamster. The assay is described as follows: Decrease in plasma cholesterol levels in dyslipidemic hamster model at 108 mg/kg after 7 days. Set-up: scale not given: the % may be the effect or the level left. Type of assay: functional, Cricetinae.
The test system of assay [19] is Hamster. The assay is described as follows: Increase in plasma HDL-C levels in dyslipidemic hamster model at 108 mg/kg after 7 days. Type of assay: functional, organism-based. Further details: dose 108 mg/kg. The conditions noted are these: Cricetinae.
The test system of assay [20] is Hamster. The assay is described as follows: Decrease in plasma glycerol levels in dyslipidemic hamster model at 108 mg/kg after 7 days. Type of assay: functional, Cricetinae. Further details: scale not given: the % may be the effect or the level left.
Assay [21] concerns Hamster. The assay is described as follows: Decrease in plasma FFA levels in dyslipidemic hamster model at 108 mg/kg after 7 days. Set-up: scale not given: the % may be the effect or the level left. Type of assay: functional, Cricetinae.
For assay [22], the system named is Hamster. The assay is described as follows: Increase in ratio of plasma HDL to plasma cholesterol levels at 108 mg/kg after 7 days. Type of assay: functional, Cricetinae.

The values below come from ChEMBL document CHEMBL1139088, “Antihyperglycemic and antidyslipidemic agent from Aegle marmelos” (2007).

Active and inactive are the calls of the source. The calls are words filed in the database; no cut-off is given here.

In the case of `COc1ccc([C@@H](O)CNC(=O)/C=C/c2ccccc2)cc1` [AEGELINE], the result in the assay filed under Homo sapiens [1], in the assay on Hamster [9] and in the assay listed under Homo sapiens [16] was inactive. Moreover, the Activity in the assay with Rattus norvegicus [2] was determined as 12.9%; in the assay on Rattus norvegicus [3], 16.9%; with Hamster [4] it was 55%; with Hamster [5] it was 48%; with Hamster [6] it was 24%; in the assay on Hamster [7], 17%. The Activity in the assay with Hamster [8] is 28%; with Hamster [10], 31%; in the assay on Hamster [11], 23%; in the assay with Hamster [12], 24%; with Hamster [13] it was 14%; in the assay on Hamster [14] it was 66%. In addition, the Activity in the assay with Hamster [15] came to 20%.

`CC(C)OC(=O)C(C)(C)Oc1ccc(C(=O)c2ccc(Cl)cc2)cc1` [FENOFIBRATE]: the Activity was found to be 42% with Hamster [17]; 18% with Hamster [18]; 36% in the assay with Hamster [20]; 20% in the assay on Hamster [21]; 10% with Hamster [22]. The outcome in the assay with Hamster [19] was inactive.

In the case of `CN(C)C(=N)NC(=N)N` [METFORMIN], the values for the Activity with Rattus norvegicus [2] and in the assay with Rattus norvegicus [3] were 23.5% and 26.5%, respectively.
